Measurements: PubChem BioAssay (NCI)
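48-hour exposure; five concentrations; linearly interpolated endpoints. GI50 = concentration required for 50% inhibition of growth. TGI is the concentration that stops growth completely.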

Columns and labels:
Experiment in all cases: NCI anticancer screen, dose series, 48 h
[1] = system: NCI-H226 lung
[2] = system: MCF7 breast
[3] = system: HCT-15 colon
[4] = system: SK-MEL-5 melanoma
[5] = system: HOP-92 NSCLC
[6] = system: MOLT-4 leukemia
[7] = system: NCI/ADR-RES ovarian
[8] = system: SF-295 CNS
[9] = system: OVCAR-5 ovarian
[10] = system: OVCAR-3 ovarian
[11] = system: MALME-3M melanoma
[12] = system: RPMI-8226 leukemia
[13] = system: HS 578T breast
[14] = system: NCI-H23 lung
[15] = system: DU-145 prostate
[16] = system: HCC-2998 colon
[17] = system: RXF 393 renal
[18] = system: PC-3 prostate
[19] = system: NCI-H460 lung
[20] = system: UACC-257 melanoma
[21] = system: UO-31 renal
[22] = system: CCRF-CEM leukemia
[23] = system: IGROV1 ovarian
[24] = system: 786-0 renal
[25] = system: SNB-75 CNS
[26] = system: CAKI-1 renal
[27] = system: SR leukemia
[28] = system: HL-60(TB) leukemia
[29] = system: HCT-116 colon
[30] = system: SK-OV-3 ovarian
[31] = system: SK-MEL-28 melanoma
[32] = system: OVCAR-8 ovarian
[33] = system: A498 renal
[34] = system: LOX IMVI melanoma
[35] = system: TK-10 renal
[36] = system: KM12 colon
[37] = system: COLO 205 colon
[38] = system: M14 melanoma
[39] = system: SNB-19 CNS
[40] = system: HT29 colon
[41] = system: OVCAR-4 ovarian
[42] = system: SW-620 colon
[43] = system: U251 CNS
[44] = system: MDA-MB-435
[45] = system: BT-549 breast
[46] = system: SF-539 CNS
[47] = system: SN12C renal
[48] = system: MDA-MB-231 breast
[49] = system: T-47D breast
[50] = system: A549 NSCLC
[51] = system: ACHN renal
[52] = system: SK-MEL-2 melanoma
[53] = system: HOP-62 NSCLC
[54] = system: UACC-62 melanoma
[55] = system: SF-268 CNS
[56] = system: EKVX NSCLC
[57] = system: K-562 leukemia

N#C/C(=N\Nc1ccc(F)cc1)C(=O)Nc1cc(-c2ccccc2)nn1-c1ccccc1
GI50 [1]: 2.84 µM
TGI [1]: 13.7 µM
GI50 [2]: 2.11 µM
TGI [2]: 11.4 µM
GI50 [3]: 2.34 µM
TGI [3]: 45.4 µM
GI50 [4]: 0.821 µM
TGI [4]: 3.16 µM
GI50 [5]: 0.427 µM
TGI [5]: 3.85 µM
GI50 [6]: 2.16 µM
TGI [6]: 9.92 µM
GI50 [7]: 2.85 µM
TGI [7]: 12.1 µM
GI50 [8]: 1.66 µM
TGI [8]: 5.75 µM
GI50 [9]: 3.52 µM
TGI [9]: 17.2 µM
GI50 [10]: 2.4 µM
TGI [10]: 15.6 µM
GI50 [11]: 1.85 µM
TGI [11]: 13.4 µM
GI50 [12]: 0.75 µM
TGI [12]: 4.48 µM
GI50 [13]: 3.39 µM
TGI [13]: 53.8 µM
GI50 [14]: 1.75 µM
TGI [14]: 10.6 µM
GI50 [15]: 3.62 µM
TGI [15]: 20.8 µM
GI50 [16]: 3.61 µM
TGI [16]: 19.3 µM
GI50 [17]: 2.24 µM
TGI [17]: 7 µM
GI50 [18]: 1.77 µM
TGI [18]: 8.7 µM
GI50 [19]: 2.02 µM
TGI [19]: 10.2 µM
GI50 [20]: 1.54 µM
TGI [20]: 8.69 µM
GI50 [21]: 2.5 µM
TGI [21]: 13.4 µM
GI50 [22]: 1.21 µM
TGI [22]: 9.31 µM
GI50 [23]: 3.69 µM
TGI [23]: 18.3 µM
GI50 [24]: 3.41 µM
TGI [24]: 14 µM
GI50 [25]: 1.93 µM
TGI [25]: 8.45 µM
GI50 [26]: 1.56 µM
TGI [26]: 8.72 µM
GI50 [27]: 2.27 µM
TGI [27]: 8.74 µM
GI50 [28]: 1.89 µM
TGI [28]: 5.43 µM
GI50 [29]: 2.16 µM
TGI [29]: 11.5 µM
GI50 [30]: 1.61 µM
TGI [30]: 6.39 µM
GI50 [31]: 3.35 µM
TGI [31]: 77.2 µM
GI50 [32]: 2.61 µM
TGI [32]: 63.8 µM
GI50 [33]: 0.141 µM
TGI [33]: 2.86 µM
GI50 [34]: 4.54 µM
TGI [34]: 17.7 µM
GI50 [35]: 3.43 µM
TGI [35]: 16.2 µM
GI50 [36]: 2.75 µM
TGI [36]: 33.4 µM
GI50 [37]: 1.82 µM
TGI [37]: 3.6 µM
GI50 [38]: 2.84 µM
TGI [38]: > 100 µM
GI50 [39]: 2.99 µM
TGI [39]: 13.4 µM
GI50 [40]: 3.07 µM
TGI [40]: 11.6 µM
GI50 [41]: 2.39 µM
TGI [41]: 21.8 µM
GI50 [42]: 3.16 µM
TGI [42]: 20.4 µM
GI50 [43]: 3.04 µM
TGI [43]: 13.2 µM
GI50 [44]: 2.55 µM
TGI [44]: > 100 µM
GI50 [45]: 2.11 µM
TGI [45]: 11.2 µM
GI50 [46]: 3.26 µM
TGI [46]: 12.8 µM
GI50 [47]: 1.83 µM
TGI [47]: 8.45 µM
GI50 [48]: 1.99 µM
TGI [48]: 5.6 µM
GI50 [49]: 1.63 µM
TGI [49]: > 100 µM
GI50 [50]: 2.45 µM
TGI [50]: 15.6 µM
GI50 [51]: 2.55 µM
TGI [51]: 10.5 µM
GI50 [52]: 1.22 µM
TGI [52]: 5.01 µM
GI50 [53]: 2.69 µM
TGI [53]: 11.2 µM
GI50 [54]: 0.853 µM
TGI [54]: 17 µM
GI50 [55]: 2.37 µM
TGI [55]: 25.9 µM
GI50 [56]: 2.84 µM
TGI [56]: 15.3 µM
GI50 [57]: 1.45 µM
TGI [57]: 12.8 µM
